From DBAASP
Converted amounts (≈) assume the structure as drawn.

How the values were obtained:
Test in all cases: ≥ marks a high value that may be exact or a test limit, other limits are often not marked, values filed in µg/mL are converted to µM
[1] = test system: Bacillus subtilis ATCC 6633
[2] = test system: Escherichia coli ATCC 25922
[3] = test system: Klebsiella pneumoniae ATCC 10031
[4] = test system: Micrococcus luteus ATCC 10240
[5] = test system: Pseudomonas aeruginosa ATCC 27853
[6] = test system: Salmonella enterica subsp. enterica serovar Typhimurium ATCC 14028
[7] = test system: Shigella dysenteriae ATCC 9752
[8] = test system: Staphylococcus aureus ATCC 6538P
[9] = test system: Staphylococcus epidermidis ATCC 12228
Escherichia coli K-12 = test system: Escherichia coli K-12
Bacillus subtilis 168 = test system: Bacillus subtilis 168
[10] = test system: Pseudomonas aeruginosa PAO1
[11] = test system: Staphylococcus aureus USA 300
Bacillus cereus = test system: Bacillus cereus
Escherichia coli = test system: Escherichia coli
Leuconostoc lactis = test system: Leuconostoc lactis
Listeria innocua = test system: Listeria innocua
Micrococcus luteus = test system: Micrococcus luteus
Pasteurella multocida = test system: Pasteurella multocida
Staphylococcus aureus = test system: Staphylococcus aureus
[12] = test system: Staphylococcus epidermidis
Streptococcus uberis = test system: Streptococcus uberis
Enterobacter cloacae = test system: Enterobacter cloacae
Enterococcus faecalis = test system: Enterococcus faecalis
Pseudomonas aeruginosa = test system: Pseudomonas aeruginosa
[13] = test system: Staphylococcus aureus ATCC 25923
[14] = test system: Staphylococcus aureus ATCC 29213

SMILES | MIC [1] [µM] | MIC [2] [µM] | MIC [3] [µM] | MIC [4] [µM] | MIC [5] [µM] | MIC [6] [µM] | MIC [7] [µM] | MIC [8] [µM] | MIC [9] [µM] | MIC (Bacillus cereus) [µM] | MIC (Escherichia coli) [µM] | MIC (Leuconostoc lactis) [µM] | MIC (Listeria innocua) [µM] | MIC (Micrococcus luteus) [µM] | MIC (Pasteurella multocida) [µM] | MIC (Staphylococcus aureus) [µM] | MIC [12] [µM] | MIC (Streptococcus uberis) [µM] | also measured
CC(C)C[C@H](NC(=O)[C@H](Cc1c[nH]c2ccccc12)NC(=O)[C@H](CCCCN)NC(=O)[C@H](Cc1ccccc1)NC(=O)[C@H](CC(C)C)NC(=O)[C@H](Cc1c[nH]c2ccccc12)NC(=O)[C@H](CCCCN)NC(=O)[C@H](CC(C)C)NC(=O)[C@@H](N)Cc1ccccc1)C(=O)N[C@@H](CCCCN)C(=O)N[C@@H](CCCCN)C(N)=O [FLKWLFKWLKK] | 4.1 (≈ 6.3 µg/mL) | 32.5 (≈ 50 µg/mL) | ≥ 32.5 | 2.02 (≈ 3.1 µg/mL) | 16.3 (≈ 25 µg/mL) | 130 (≈ 200 µg/mL) | 16.3 (≈ 25 µg/mL) | 8.13 (≈ 12.5 µg/mL) | 8.13 (≈ 12.5 µg/mL) | – | – | – | – | – | – | – | – | – | –
CC(C)C[C@H](NC(=O)[C@H](Cc1c[nH]c2ccccc12)NC(=O)[C@H](Cc1c[nH]c2ccccc12)NC(=O)[C@H](CC(C)C)NC(=O)[C@@H](N)Cc1ccccc1)C(=O)N[C@@H](Cc1ccccc1)C(=O)N[C@@H](CCCCN)C(=O)N[C@@H](Cc1c[nH]c2ccccc12)C(=O)N[C@@H](C)C(=O)N[C@@H](Cc1c[nH]c2ccccc12)C(=O)N[C@@H](CCCCN)C(N)=O [FLWWLFKWAWK] | 1.92 (≈ 3.1 µg/mL) | > 124 | ≥ 124 | 1.92 (≈ 3.1 µg/mL) | > 124 | > 124 | ≥ 124 | 3.91 (≈ 6.3 µg/mL) | 1.92 (≈ 3.1 µg/mL) | – | – | – | – | – | – | – | – | – | –
CC[C@H](C)[C@H](NC(=O)[C@H](C)NC(=O)[C@H](CCC(N)=O)NC(=O)[C@@H](NC(=O)[C@@H](NC(=O)[C@H](CCCN=C(N)N)NC(=O)[C@H](CCCCN)NC(=O)[C@H](Cc1ccccc1)NC(=O)CN)[C@@H](C)CC)C(C)C)C(=O)N[C@@H](CCCCN)C(=O)N[C@@H](CC(=O)O)C(=O)N[C@@H](Cc1ccccc1)C(=O)N[C@@H](CC(C)C)C(=O)N[C@@H](CCCN=C(N)N)C(=O)N[C@@H](CC(N)=O)C(=O)N[C@@H](CC(C)C)C(=O)N[C@H](C(N)=O)C(C)C [GFKRIVQAIKDFLRNLV] | – | – | – | – | – | – | – | – | – | – | – | – | – | – | – | – | – | – | MIC (Escherichia coli K-12): ≥ 60 µM
CC[C@H](C)[C@H](NC(=O)[C@@H](NC(=O)[C@H](CCCCN)NC(=O)CNC(=O)[C@@H](NC(=O)[C@@H](NC(=O)[C@H](CO)NC(=O)[C@@H](NC(=O)[C@@H](NC(=O)[C@@H]1CCCN1C(=O)[C@@H](NC(=O)[C@@H](NC(=O)CN)[C@@H](C)CC)[C@@H](C)CC)[C@@H](C)CC)[C@@H](C)CC)[C@@H](C)CC)[C@@H](C)CC)[C@@H](C)CC)C(N)=O [GIIPIISIIGKII] | – | – | – | – | – | – | – | – | – | – | – | – | – | – | – | – | – | – | MIC (Bacillus subtilis 168): 30 µM (≈ 40.5 µg/mL); MIC (Escherichia coli K-12): ≥ 34 µM; MIC [10]: > 30 µM; MIC [11]: ≥ 34 µM
CC(C)C[C@H](NC(=O)[C@H](CC(C)C)NC(=O)[C@H](CCCCN)NC(=O)[C@H](CC(C)C)NC(=O)[C@H](CC(C)C)NC(=O)[C@H](Cc1c[nH]c2ccccc12)NC(=O)[C@H](CCCCN)NC(=O)[C@H](CC(C)C)NC(=O)[C@H](CC(C)C)NC(=O)[C@H](CCCCN)NC(=O)[C@H](CCCCN)NC(=O)[C@@H](N)CC(C)C)C(=O)N[C@@H](CCCCN)C(N)=O [LKKLLKWLLKLLK] | 1.89 (≈ 3.1 µg/mL) | > 122 | ≥ 122 | 1.89 (≈ 3.1 µg/mL) | > 122 | > 122 | ≥ 122 | 7.63 (≈ 12.5 µg/mL) | 7.63 (≈ 12.5 µg/mL) | – | – | – | – | – | – | – | – | – | –
CC(C)C[C@H](NC(=O)[C@H](CC(C)C)NC(=O)[C@H](CCCCN)NC(=O)[C@H](CC(C)C)NC(=O)[C@H](CC(C)C)NC(=O)[C@H](Cc1c[nH]c2ccccc12)NC(=O)[C@H](CCCCN)NC(=O)[C@H](CC(C)C)NC(=O)[C@H](CC(C)C)NC(=O)[C@H](CCCCN)NC(=O)[C@H](CC(C)C)NC(=O)[C@@H](N)CC(C)C)C(=O)N[C@@H](CCCCN)C(N)=O [LLKLLKWLLKLLK] | 3.88 (≈ 6.3 µg/mL) | > 123 | ≥ 123 | 3.88 (≈ 6.3 µg/mL) | > 123 | > 123 | ≥ 123 | 15.4 (≈ 25 µg/mL) | 30.8 (≈ 50 µg/mL) | – | – | – | – | – | – | – | – | – | –

Second part, led by results:

MIC [1] [µM] | MIC [2] [µM] | MIC [3] [µM] | MIC [4] [µM] | MIC [5] [µM] | MIC [6] [µM] | MIC [7] [µM] | MIC [8] [µM] | MIC [9] [µM] | MIC (Bacillus cereus) [µM] | MIC (Escherichia coli) [µM] | MIC (Leuconostoc lactis) [µM] | MIC (Listeria innocua) [µM] | MIC (Micrococcus luteus) [µM] | MIC (Pasteurella multocida) [µM] | MIC (Staphylococcus aureus) [µM] | MIC [12] [µM] | MIC (Streptococcus uberis) [µM] | SMILES | also measured
– | – | – | – | – | – | – | – | – | ≥ 32.5 | > 64.9 | ≥ 64.9 | ≥ 64.9 | ≥ 32.5 | ≥ 64.9 | 64.9 (≈ 99.9 µg/mL) | ≥ 64.9 | ≥ 64.9 | CC[C@H](C)[C@H](NC(=O)[C@@H](NC(=O)[C@H](CO)NC(=O)[C@H](C)NC(=O)[C@@H](NC(=O)[C@H](CCCCN)NC(=O)[C@H](CCCCN)NC(=O)[C@@H](NC(=O)[C@@H](NC(=O)[C@H](CC(=O)O)NC(=O)[C@H](C)NC(=O)[C@H](CC(C)C)NC(=O)CN)C(C)C)[C@@H](C)CC)C(C)C)C(C)C)C(=O)NCC(=O)NCC(=O)N[C@@H](CC(C)C)C(N)=O [GLADVIKKVASVIGGL] | –
– | – | – | – | – | – | – | – | – | 14.2 (≈ 25 µg/mL) | > 57 | 1.71 (≈ 3 µg/mL) | ≥ 57 | 14.2 (≈ 25 µg/mL) | ≥ 57 | 14.2 (≈ 25 µg/mL) | 6.84 (≈ 12 µg/mL) | 28.5 (≈ 50 µg/mL) | CC[C@H](C)[C@H](NC(=O)[C@@H](NC(=O)[C@H](C)NC(=O)[C@H](Cc1ccccc1)NC(=O)[C@H](CC(C)C)NC(=O)CN)C(C)C)C(=O)N[C@@H](CCCCN)C(=O)N[C@@H](CCCCN)C(=O)N[C@H](C(=O)N[C@@H](C)C(=O)N[C@@H](CCCCN)C(=O)N[C@H](C(=O)N[C@H](C(=O)N[C@@H](CCCCN)C(=O)N[C@@H](CCCCN)C(=O)N[C@@H](CC(C)C)C(N)=O)[C@@H](C)CC)C(C)C)C(C)C [GLFAVIKKVAKVIKKL] | –
– | – | – | – | – | – | – | – | – | ≥ 64.1 | > 64.1 | 16 (≈ 25 µg/mL) | ≥ 64.1 | ≥ 64.1 | ≥ 64.1 | 64.1 (≈ 99.9 µg/mL) | ≥ 64.1 | ≥ 64.1 | CC[C@H](C)[C@H](NC(=O)[C@@H](NC(=O)[C@H](CO)NC(=O)[C@H](C)NC(=O)[C@@H](NC(=O)[C@H](CCCCN)NC(=O)[C@H](C)NC(=O)[C@@H](NC(=O)[C@@H](NC(=O)[C@H](CC(=O)O)NC(=O)[C@H](Cc1ccccc1)NC(=O)[C@H](CC(C)C)NC(=O)CN)C(C)C)[C@@H](C)CC)C(C)C)C(C)C)C(=O)NCC(=O)NCC(=O)N[C@@H](CC(C)C)C(N)=O [GLFDVIAKVASVIGGL] | –
– | – | – | – | – | – | – | – | – | ≥ 58.3 | > 58.3 | 3.5 (≈ 6 µg/mL) | ≥ 58.3 | ≥ 58.3 | ≥ 58.3 | > 58.3 | ≥ 58.3 | ≥ 58.3 | CC[C@H](C)[C@H](NC(=O)[C@H](CCCCN)NC(=O)[C@H](CO)NC(=O)[C@H](C)NC(=O)[C@@H](NC(=O)[C@H](CCCCN)NC(=O)[C@H](CCCCN)NC(=O)[C@@H](NC(=O)[C@@H](NC(=O)[C@H](CC(=O)O)NC(=O)[C@H](Cc1ccccc1)NC(=O)[C@H](CC(C)C)NC(=O)CN)C(C)C)[C@@H](C)CC)C(C)C)C(=O)N[C@@H](CCCCN)C(=O)NCC(=O)N[C@@H](CC(C)C)C(N)=O [GLFDVIKKVASKIKGL] | –
– | – | – | – | – | – | – | – | – | 18.9 (≈ 50 µg/mL) | > 37.7 | 1.13 (≈ 3 µg/mL) | 4.53 (≈ 12 µg/mL) | 9.43 (≈ 25 µg/mL) | 18.9 (≈ 50 µg/mL) | – | 4.53 (≈ 12 µg/mL) | 9.43 (≈ 25 µg/mL) | CC[C@H](C)[C@H](NC(=O)[C@@H](NC(=O)[C@@H]1CCCN1C(=O)[C@H](C)NC(=O)[C@@H](NC(=O)[C@H](Cc1cnc[nH]1)NC(=O)[C@@H]1CCCN1C(=O)[C@H](CC(C)C)NC(=O)[C@H](CC(C)C)NC(=O)[C@H](Cc1cnc[nH]1)NC(=O)[C@H](CCCCN)NC(=O)[C@H](C)NC(=O)[C@@H](NC(=O)[C@H](CO)NC(=O)CNC(=O)[C@H](CC(C)C)NC(=O)[C@@H](NC(=O)[C@H](CCCCN)NC(=O)[C@H](Cc1ccccc1)NC(=O)[C@H](CC(C)C)NC(=O)CN)C(C)C)C(C)C)C(C)C)[C@@H](C)CC)C(=O)N[C@@H](C)C(=O)N[C@@H](CCC(=O)O)C(=O)N[C@@H](CCCCN)C(=O)N[C@@H](CC(C)C)C(N)=O [GLFKVLGSVAKHLLPHVAPIIAEKL] | MIC (Enterobacter cloacae): ≥ 37.7 µM; MIC (Enterococcus faecalis): ≥ 37.7 µM; MIC (Pseudomonas aeruginosa): > 37.7 µM; MIC [13]: 4.53 µM (≈ 12 µg/mL); MIC [14]: 4.53 µM (≈ 12 µg/mL)
